Data taken from patent US20260085067A1, “CYCLIC SULFONAMIDE RIBONUCLEOTIDE REDUCTASE (RNR) INHIBITORS AND USES THEREOF” (Boundless Bio, Inc., priority 2022, published 2026).

Assays:
[1] = molecular target: T1, RNR (RNR1:RNR2 1:1) (Homo sapiens, UniProt P23921); experiment: RNR enzyme activity, rapid-fire mass spectrometry (RF/MS) assay; type: biochemical; conditions: [RNR] 50 nM, 1:1 RNR1:RNR2; CDP 5 μM; ATP 1 mM; 37° C., 45 min; compounds screened up to 50 μM
T1 sequence (P23921 1-792): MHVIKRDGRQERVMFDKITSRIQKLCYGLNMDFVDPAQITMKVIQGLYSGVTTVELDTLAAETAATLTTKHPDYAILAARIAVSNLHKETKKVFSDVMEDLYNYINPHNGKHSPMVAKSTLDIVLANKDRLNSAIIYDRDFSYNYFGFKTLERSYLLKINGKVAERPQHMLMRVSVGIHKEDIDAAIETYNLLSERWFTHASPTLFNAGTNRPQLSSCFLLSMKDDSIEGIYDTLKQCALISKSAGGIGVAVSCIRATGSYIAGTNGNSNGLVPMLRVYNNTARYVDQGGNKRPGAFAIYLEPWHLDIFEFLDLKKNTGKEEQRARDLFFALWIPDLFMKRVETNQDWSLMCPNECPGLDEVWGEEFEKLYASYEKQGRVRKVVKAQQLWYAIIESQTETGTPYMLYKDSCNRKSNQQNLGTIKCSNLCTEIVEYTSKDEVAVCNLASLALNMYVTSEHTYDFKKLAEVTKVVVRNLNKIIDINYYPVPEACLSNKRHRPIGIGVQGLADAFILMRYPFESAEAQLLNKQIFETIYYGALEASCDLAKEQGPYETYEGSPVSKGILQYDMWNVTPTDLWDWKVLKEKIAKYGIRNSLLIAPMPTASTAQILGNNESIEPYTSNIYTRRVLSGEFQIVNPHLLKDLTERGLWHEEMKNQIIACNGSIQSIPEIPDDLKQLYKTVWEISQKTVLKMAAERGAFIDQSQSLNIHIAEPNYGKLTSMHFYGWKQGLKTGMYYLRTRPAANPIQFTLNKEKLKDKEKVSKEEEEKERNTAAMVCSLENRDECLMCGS
How it was run: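 Human RNR (50 nM final, RNR1:RNR2 1:1) pre-incubated 15 min at room temperature, then reacted 45 min at 37 °C with 5 μM CDP and 1 mM ATP, no NADPH. Reaction quenched with 6% HCOOH; product quantified by rapid-fire mass spectrometry.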

[2] = test system: pCHK1 (S345) in Colo320 DM cells; experiment: Alphalisa assay, detection of pCHK1 (S345) in Colo320 DM cells; type: cell-based, human; conditions: Homo sapiens, COLO 320DM, compound overnight (approximately 16 hours)
How it was run: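 Phospho-CHK1 (S345) read by AlphaLisa SureFire in lysates of human colorectal Colo320 DM cells. Compound treatment ran overnight (~16 h, 37 °C, DMSO <0.5%) on cells seeded the day before.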

| Structure (SMILES) | IC50 [1] | IC50 [2] |
| --- | --- | --- |
| CC(=O)c1c(Cl)ccc2c1N(C)CN([C@H](c1n[nH]c(=O)o1)[C@H](C)c1c(F)ccc(C)c1C)S2(=O)=O [Example 64, 5-((1S,2R)-1-(5-acetyl-6-chloro-4-methyl-1,1-dioxido-3,4-dihydro-2H-benzo[e][1,2,4]thiadiazin-2-yl)-2-(6-fluoro-2,3-dimethylphenyl)propyl)-1,3,4-oxadiazol-2 (3H)-one] | 20 to 100 nM | ≤ 1000 nM |
| Cc1ccc(F)c([C@@H](C)[C@@H](c2n[nH]c(=O)o2)N2CN(C3CN(C)C3)c3cc(Cl)ccc3S2(=O)=O)c1C [Example 65, 5-((1S,2R)-1-(6-chloro-4-(1-methylazetidin-3-yl)-1,1-dioxido-3,4-dihydro-2H-benzo[e][1,2,4]thiadiazin-2-yl)-2-(6-fluoro-2,3-dimethylphenyl)propyl)-1,3,4-oxadiazol-2 (3H)-one] | < 20 nM | ≤ 1000 nM |
| Cc1ccc(F)c([C@@H](C)[C@@H](c2n[nH]c(=O)o2)N2CN(C)c3cc(O)ccc3S2(=O)=O)c1C [Example 66, 5-((1S,2R)-2-(6-fluoro-2,3-dimethylphenyl)-1-(6-hydroxy-4-methyl-1,1-dioxido-3,4-dihydro-2H-benzo[e][1,2,4]thiadiazin-2-yl)propyl)-1,3,4-oxadiazol-2 (3H)-one] | 20 to 100 nM | 10000 to 50000 nM |
| Cc1ccc(F)c([C@@H](C)[C@@H](c2n[nH]c(=O)o2)N2CN(S(C)(=O)=O)c3cc(Cl)ccc3S2(=O)=O)c1C [Example 67, 5-((1S,2R)-1-(6-chloro-4-(methylsulfonyl)-1,1-dioxido-3,4-dihydro-2H-benzo[e][1,2,4]thiadiazin-2-yl)-2-(6-fluoro-2,3-dimethylphenyl)propyl)-1,3,4-oxadiazol-2 (3H)-one] | 100 to 1000 nM | 5000 to 10000 nM |
| Cc1ccc(F)c([C@@H](C)[C@@H](c2n[nH]c(=O)o2)N2CN(C)c3cc(Cl)cc(C(C)O)c3S2(=O)=O)c1C (stereo partly drawn) [Example 68, 5-((1S,2R)-1-(6-chloro-8-(1-hydroxyethyl)-4-methyl-1,1-dioxido-3,4-dihydro-2H-benzo[e][1,2,4]thiadiazin-2-yl)-2-(6-fluoro-2,3-dimethylphenyl)propyl)-1,3,4-oxadiazol-2 (3H)-one] | 20 to 100 nM | ≤ 1000 nM |
| COCc1cc2c(cc1Cl)OCCN([C@H](c1n[nH]c(=O)o1)[C@H](C)c1c(F)ccc(C)c1C)S2(=O)=O [Example 69, 5-((1S,2R)-1-(7-chloro-8-(methoxymethyl)-1,1-dioxido-3,4-dihydro-2H-benzo[b][,4,5]oxathiazepin-2-yl)-2-(6-fluoro-2,3-dimethylphenyl)propyl)-1,3,4-oxadiazol-2 (3H)-one] | 1000 to 10000 nM | > 50000 nM |
| COCc1cc(Cl)cc2c1S(=O)(=O)N([C@H](c1n[nH]c(=O)o1)[C@H](C)c1c(F)ccc(C)c1C)CN2C [Example 70, 5-((1S,2R)-1-(6-chloro-8-(methoxymethyl)-4-methyl-1,1-dioxido-3,4-dihydro-2H-benzo[e][1,2,4]thiadiazin-2-yl)-2-(6-fluoro-2,3-dimethylphenyl)propyl)-1,3,4-oxadiazol-2 (3H)-one] | 20 to 100 nM | 1000 to 5000 nM |
| COCc1cc(Cl)cc2c1S(=O)(=O)N([C@H](c1n[nH]c(=O)o1)[C@H](C)c1c(F)ccc(C)c1C)CCO2 [Example 71, 5-((1S,2R)-1-(7-chloro-9-(methoxymethyl)-1,1-dioxido-3,4-dihydro-2H-benzo[b][1,4,5]oxathiazepin-2-yl)-2-(6-fluoro-2,3-dimethylphenyl)propyl)-1,3,4-oxadiazol-2 (3H)-one] | 100 to 1000 nM | ≤ 1000 nM |
| Cc1ccc(F)c([C@@H](C)[C@@H](c2n[nH]c(=O)o2)N2CN(C)c3cc(Cl)cc(CO)c3S2(=O)=O)c1C [Example 72, 5-((1S,2R)-1-(6-chloro-8-(hydroxymethyl)-4-methyl-1,1-dioxido-3,4-dihydro-2H-benzo[e][1,2,4]thiadiazin-2-yl)-2-(6-fluoro-2,3-dimethylphenyl)propyl)-1,3,4-oxadiazol-2 (3H)-one] | < 20 nM | ≤ 1000 nM |
| Cc1ccc(F)c([C@@H](C)[C@@H](c2n[nH]c(=O)o2)N2CN(CCO)c3nc(Cl)ccc3S2(=O)=O)c1C [Example 73, 5-((1S,2R)-1-(6-chloro-4-(2-hydroxyethyl)-1,1-dioxido-3,4-dihydro-2H-pyrido[2,3-e][1,2,4]thiadiazin-2-yl)-2-(6-fluoro-2,3-dimethylphenyl)propyl)-1,3,4-oxadiazol-2 (3H)-one] | < 20 nM | ≤ 1000 nM |
| Cc1ccc(F)c([C@@H](C)[C@@H](c2n[nH]c(=O)o2)N2CN([C@@H]3CCN(C)C3)c3cc(Cl)ccc3S2(=O)=O)c1C [Example 74, 5-((1S,2R)-1-(6-chloro-4-((R)-1-methylpyrrolidin-3-yl)-1,1-dioxido-3,4-dihydro-2H-benzo[e][1,2,4]thiadiazin-2-yl)-2-(6-fluoro-2,3-dimethylphenyl)propyl)-1,3,4-oxadiazol-2 (3H)-one] | < 20 nM | ≤ 1000 nM |
| Cc1ccc(F)c([C@@H](C)[C@@H](c2n[nH]c(=O)o2)N2CN(C)c3cc(Cl)cc(CBr)c3S2(=O)=O)c1C [Example 76, 5-((1S,2R)-1 (8-(bromomethyl)-6-chloro-4-methyl-1,1-dioxido-3,4-dihydro-2H-benzo[e][1,2,4]thiadiazin-2-yl)-2-(6-fluoro-2,3-dimethylphenyl)propyl)-1,3,4-oxadiazol-2 (3H)-one] | < 20 nM | 1000 to 5000 nM |
| Cc1ccc(F)c([C@@H](C)[C@@H](c2n[nH]c(=O)o2)N2CCOc3cc(Cl)c(CO)cc3S2(=O)=O)c1C [Example 77, 5-((1S,2R)-1-(7-chloro-8-(hydroxymethyl)-1,1-dioxido-3,4-dihydro-2H-benzo[b][1,4,5]oxathiazepin-2-yl)-2-(6-fluoro-2,3-dimethylphenyl)propyl)-1,3,4-oxadiazol-2 (3H)-one] | 100 to 1000 nM | > 50000 nM |
| Cc1ccc(F)c([C@@H](C)[C@@H](c2n[nH]c(=O)o2)N2CCOc3cc(Cl)cc(CO)c3S2(=O)=O)c1C [Example 78, 5-((1S,2R)-1-(7-chloro-9-(hydroxymethyl)-1,1-dioxido-3,4-dihydro-2H-benzo[b][1,4,5]oxathiazepin-2-yl)-2-(6-fluoro-2,3-dimethylphenyl)propyl)-1,3,4-oxadiazol-2 (3H)-one] | < 20 nM | ≤ 1000 nM |
| Cc1ccc(F)c([C@@H](C)[C@@H](c2n[nH]c(=O)o2)N2CN(CCCO)c3cc(Cl)ccc3S2(=O)=O)c1C [Example 79, 5-((1S,2R)-1-(6-chloro-4-(3-hydroxypropyl)-1,1-dioxido-3,4-dihydro-2H-benzo[e][1,2,4]thiadiazin-2-yl)-2-(6-fluoro-2,3-dimethylphenyl)propyl)-1,3,4-oxadiazol-2 (3H)-one] | < 20 nM | ≤ 1000 nM |
| Cc1ccc(F)c([C@@H](C)[C@@H](c2n[nH]c(=O)o2)N2CN(CCN3CCCC3)c3cc(Cl)ccc3S2(=O)=O)c1C [Example 80, 5-((1S,2R)-1-(6-chloro-1,1-dioxido-4-(2-(pyrrolidin-1-yl)ethyl)-3,4-dihydro-2H-benzo[e][1,2,4]thiadiazin-2-yl)-2-(6-fluoro-2,3-dimethylphenyl)propyl)-1,3,4-oxadiazol-2 (3H)-one] | < 20 nM | ≤ 1000 nM |
| Cc1ccc(F)c([C@@H](C)[C@@H](c2n[nH]c(=O)o2)N2CN(CC(F)F)c3nc(Cl)ccc3S2(=O)=O)c1C [Example 81, 5-[(1S,2R)-1-[6-chloro-4-(2,2-difluoroethyl)-1,1-dioxo-3H-pyrido[2,3-e][1,2,4]thiadiazin-2-yl]-2-(6-fluoro-2,3-dimethyl-phenyl)propyl]-3H-1,3,4-oxadiazol-2-one] | < 20 nM | ≤ 1000 nM |
| Cc1ccc(F)c([C@@H](C)[C@@H](c2n[nH]c(=O)o2)N2CN(CCCO)c3nc(Cl)ccc3S2(=O)=O)c1C [Example 82, 5-[(1S,2R)-1-[6-chloro-4-(3-hydroxypropyl)-1,1-dioxo-3H-pyrido[2,3-e][1,2,4]thiadiazin-2-yl]-2-(6-fluoro-2,3-dimethyl-phenyl)propyl]-3H-1,3,4-oxadiazol-2-one] | < 20 nM | ≤ 1000 nM |
| Cc1ccc(F)c([C@@H](C)[C@@H](c2n[nH]c(=O)o2)N2CN(CC3COC3)c3cc(Cl)ccc3S2(=O)=O)c1C [Example 83, 5-((1S,2R)-1-(6-chloro-4-(oxetan-3-ylmethyl)-1,1-dioxido-3,4-dihydro-2H-benzo[e][1,2,4]thiadiazin-2-yl)-2-(6-fluoro-2,3-dimethylphenyl)propyl)-1,3,4-oxadiazol-2 (3H)-one] | < 20 nM | ≤ 1000 nM |
